Paper PMC12412615, “Tailored SirReal-type inhibitors enhance SIRT2 inhibition through ligand stabilization and disruption of NAD^+ co-factor binding” (RSC Medicinal Chemistry, 2025)

Assays:
[1] = target: T1, human SIRT1 (Homo sapiens, UniProt Q96EB6); test: Fluorescence-based sirtuin subtype selectivity assay, SIRT1, single dose 50 μM; type: biochemical; settings: 50 μM compound; mean, n = 2
T1 construct: purchased Reaction Biology Corporation (Malvern, USA), contract assay
T1 sequence (Q96EB6 1-747): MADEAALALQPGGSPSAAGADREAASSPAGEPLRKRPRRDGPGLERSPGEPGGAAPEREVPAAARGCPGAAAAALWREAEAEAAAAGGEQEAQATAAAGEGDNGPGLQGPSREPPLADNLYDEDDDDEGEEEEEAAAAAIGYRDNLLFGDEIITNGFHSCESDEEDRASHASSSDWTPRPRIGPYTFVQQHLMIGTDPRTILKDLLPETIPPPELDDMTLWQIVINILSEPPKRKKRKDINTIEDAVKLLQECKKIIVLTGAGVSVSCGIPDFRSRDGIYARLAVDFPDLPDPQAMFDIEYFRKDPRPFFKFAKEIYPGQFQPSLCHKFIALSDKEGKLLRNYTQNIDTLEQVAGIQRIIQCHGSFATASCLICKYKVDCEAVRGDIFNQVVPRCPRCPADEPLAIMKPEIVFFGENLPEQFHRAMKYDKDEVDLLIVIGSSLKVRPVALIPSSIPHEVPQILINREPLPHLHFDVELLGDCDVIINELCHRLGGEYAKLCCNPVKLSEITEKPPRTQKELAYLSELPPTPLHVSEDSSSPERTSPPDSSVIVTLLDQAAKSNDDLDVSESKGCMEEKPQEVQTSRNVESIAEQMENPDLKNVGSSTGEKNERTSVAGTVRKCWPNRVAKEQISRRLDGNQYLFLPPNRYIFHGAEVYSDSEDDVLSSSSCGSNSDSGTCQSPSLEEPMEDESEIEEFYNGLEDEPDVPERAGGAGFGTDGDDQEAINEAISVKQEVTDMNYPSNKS
Experimental: (§1) IC50 values against SIRT2 are given as mean with standard deviations (n = 3). Inhibition percentages at 50 μM for SIRT1, 3 and 5 are given as mean without standard deviations (n = 2)
(§2) The determination of subtype selectivity against SIRT1, 3 and 5 was performed by measuring the residual enzyme activity after treatment with the corresponding inhibitor at a fixed concentration of 50 μM and subsequent calculation of the percentage inhibition.
(§3) The determination of inhibitory activity on the corresponding sirtuin enzymes was carried out based on a fluorescence-based assay commissioned by Reaction Biology Corporation (Malvern, USA) following an internal experimental protocol. Test substances were prepared in DMSO, delivered into the respective enzyme mixture (prepared with reaction buffer: Tris-HCl, pH = 8) and incubated for 10 minutes at 30 °C. Subsequently the substrate mixture (NAD^+ and a 7-amino-4-methylcoumarin-based fluorogenic peptide substrate) was added to initiate the deacetylation reaction. After 2 hours incubation at 30 °C, 2 mM nicotinamide (universal sirtuin inhibitor, to stop the reaction) and protease-based developer (to generate fluorescence by the cleavage of 7-amino-4-methylcoumarin) was added. At 30 °C 1 hour later, the respective fluorescence was measured (extinction/emission = 360 nm/460 nm). The inhibitory effect of the test compounds is indirectly proportional to the amount of converted fluorescent substrate standardized as 100% activity of the control without inhibitor. The test substances were tested in 10-dose IC50 triplicate mode, with 3-fold serial dilution starting at 50 μM final reaction concentration and if necessary, starting at 100 μM. For each serially diluted replicate of the triplicate, an IC50 value was determined by sigmoidal curve fitting, resulting in three IC50 values, from which the mean and corresponding standard deviation were subsequently calculated. Data processing was performed based on Prism 8.0.2 software (GraphPad Software, Boston, USA). Subtype selectivity on SIRT1, SIRT3 and SIRT5 was evaluated in a single dose duplicate mode at 50 μM final test compound concentration according to previous outlined internal protocol of Reaction Biology Corporation by determining the enzyme activity of the respective sirtuins in % (no inhibitor control as 100% activity).

[2] = target: T2, human SIRT3 (Homo sapiens, UniProt Q9NTG7); test: Fluorescence-based sirtuin subtype selectivity assay, SIRT3, single dose 50 μM; type: biochemical; settings: 50 μM compound; mean, n = 2
T2 construct: purchased Reaction Biology Corporation (Malvern, USA), contract assay
T2 sequence (Q9NTG7 1-399): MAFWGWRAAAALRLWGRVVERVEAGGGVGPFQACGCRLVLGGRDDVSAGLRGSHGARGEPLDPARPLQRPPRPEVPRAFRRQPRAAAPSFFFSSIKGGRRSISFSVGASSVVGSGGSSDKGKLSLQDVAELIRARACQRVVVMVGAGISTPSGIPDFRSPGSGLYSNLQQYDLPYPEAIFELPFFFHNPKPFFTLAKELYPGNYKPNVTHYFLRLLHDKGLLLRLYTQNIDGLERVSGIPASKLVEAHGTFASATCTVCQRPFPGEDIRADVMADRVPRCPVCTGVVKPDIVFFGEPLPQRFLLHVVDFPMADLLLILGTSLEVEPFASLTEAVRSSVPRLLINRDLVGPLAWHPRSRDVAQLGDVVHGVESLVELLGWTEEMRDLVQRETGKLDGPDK
Experimental: as §1, §2, §3

[3] = target: T3, NanoLuc-SIRT2 fusion construct (Homo sapiens, UniProt Q8IXJ6); test: NanoBRET cellular target engagement assay in HEK293T cells; type: cell-based; settings: stable HEK293T cell line expressing NanoLuc-SIRT2; 2 μM tracer; 2 hours at 37 °C; read-out: NanoBRET EC50 (cellular SIRT2 target engagement)
T3 construct: HEK293T cells expressing the NanoLuc-tagged SIRT2(50-356) fusion protein were used; expressed in transfected cells; transient transfection for SH10
T3 sequence (Q8IXJ6 50-356): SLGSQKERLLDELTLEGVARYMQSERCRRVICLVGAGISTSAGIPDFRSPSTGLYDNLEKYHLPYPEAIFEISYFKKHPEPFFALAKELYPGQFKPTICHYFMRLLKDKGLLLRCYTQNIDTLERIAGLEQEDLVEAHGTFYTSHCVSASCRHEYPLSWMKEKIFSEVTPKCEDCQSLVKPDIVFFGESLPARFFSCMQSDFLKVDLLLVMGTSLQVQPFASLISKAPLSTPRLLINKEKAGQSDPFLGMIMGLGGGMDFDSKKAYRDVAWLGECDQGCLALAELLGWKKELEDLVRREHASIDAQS
Experimental: For the assay, cells were trypsinized, resuspended in Opti-MEM® reduced serum medium, and adjusted to a concentration of 2 × 10^5 cells per mL. […] Serially diluted inhibitor and tracer were added to the cell suspension, and 100 μL were seeded into 96-well white, sterile, nonbinding surface plates. […] For BRET measurements, NanoBRET NanoGlo Substrate (Promega cat. #N1571) was added to the wells according to the manufacturer's protocol. […] The BRET ratio was calculated as the ratio of acceptor to donor signal, and data were normalized to vehicle-treated controls. Apparent intracellular binding affinities (EC50 values) were determined by fitting dose–response curves using nonlinear regression analysis in GraphPad Prism.

[4] = target: T4, human SIRT5 (Homo sapiens, UniProt Q9NXA8); test: Fluorescence-based sirtuin subtype selectivity assay, SIRT5, single dose 50 μM; type: biochemical; settings: 50 μM compound; mean, n = 2
T4 construct: purchased Reaction Biology Corporation (Malvern, USA), contract assay
T4 sequence (Q9NXA8 37-310): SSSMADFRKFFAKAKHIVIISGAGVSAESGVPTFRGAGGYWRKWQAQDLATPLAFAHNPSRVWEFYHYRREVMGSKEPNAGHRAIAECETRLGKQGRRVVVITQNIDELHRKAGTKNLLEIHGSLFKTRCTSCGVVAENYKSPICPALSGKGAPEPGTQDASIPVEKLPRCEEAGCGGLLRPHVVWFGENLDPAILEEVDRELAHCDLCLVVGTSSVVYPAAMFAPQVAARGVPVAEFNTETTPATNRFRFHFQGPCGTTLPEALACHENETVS
Experimental: as §1, §2, §3

inhibition at 50 µM [1]: 12%
inhibition at 50 µM [2]: 26%
EC50 [3]: 15 nM
inhibition at 50 µM [4]: 7%
SMILES: Cc1cc(C)nc(SCC(=O)Nc2cccc(COc3ccc(NC(=O)c4cnn(C)c4)c(Cl)c3)c2)n1 [Compound 29, N-(2-Chloro-4-((3-(2-((4,6-dimethylpyrimidin-2-yl)thio)acetamido)benzyl)oxy)phenyl)-1-methyl-1H-pyrazole-4-carboxamide]
